# Measured values as given in patent US20160339008A1, “METHODS OF TREATING OR PREVENTING VASCULAR DISEASES OF THE RETINA” (Children's Medical Center Corporation, priority 2013, published 2016).
# Experiments:
# [1] = test system: aortic rings (macrovascular sprouting); experiment: Aortic ring sprouting assay (ex vivo aortic ring explants); format: cell-based, mouse
# Procedure: Tie2-CYP2C8Tg, Tie2-sEHTg, sEH−/− mice and littermate wild-type mice were anesthetized and perfused intracardiacly with warm PBS. Aortae were dissected free, cut into 1-mm-thick rings and embedded in 304, of growth factor-reduced Matrigel™ (BD Biosciences, Cat. 354230) in 24-well tissue culture plates. 5004, CSC complete medium (Cell Systems, Cat. 420-500) activated with growth factor Boost, was then added to each well and incubated at 37° C. with 5% CO2 for 48 hours before any treatment. Medium contained 5 units/mL of Penicillin/Streptomycin (GIBCO, Cat. 15142) to prevent contamination.
# DHA (Cayman Chemical, Cat. 90310, 30 μM) and AA (Cayman Chemical, Cat. 90010, 30 μM) were introduced to the culture medium 48 hours after seeding of aortic ring from Tie2-CYP2C8Tg and littermate wild-type control. 17(18)-EpETE (EEQ) (Cayman Chemical, Cat. 50861, 1 μM), 19(20)-EpDPE (EDP) (Cayman Chemical, Cat. 10175, 1 μM) and 14,15-EE-8(Z)-E (EET) (Cayman Chemical, Cat. 10010486, 1 μM) were administered to the culture medium 48 hours after seeding of aortic ring from Tie2-sEHTg, sEH−/− and their wild-type littermate controls. Medium was changed every 48 hours for all groups. Phase contrast photos of individual explants were taken 168 hours after plating (120 hours after treatment) using a ZEISS Axio Oberver.Z1 microscope. The areas of macrovascular sprouting were quantified with computer software ImageJ 1.46r (National Institute of Health). A semi-automated macro plugin for quantification of vessel sprouts is available from the authors.
# [2] = test system: human retinal microvascular endothelial cells (HRMEC); experiment: HRMEC tubule formation; format: cell-based
# [3] = test system: human retinal microvascular endothelial cells (HRMEC); experiment: HRMEC migration; format: cell-based; conditions: for rescue of the inhibition of HRMEC migration by FA: with FA
# [4] = test system: neovascularization (NV) in oxygen-induced retinopathy; experiment: Oxygen-induced retinopathy (OIR) mouse model, quantification of retinal neovascularization; format: in vivo; conditions: for magnitude of the extent of reduction in NV, Cyp2C8 Tg mice compared to WT mice: 10 mg/kg/day GV, mice fed ω3 (n3) or ω6 (n6)
# Procedure: Mouse model of OIR is described^13. C57BL/6J mice were analyzed by immunohistochemistry, real-time PCR, western blot, blood smear and LC/MS/MS oxylipid analysis. Mothers of Cyp and sEH mutant mice were fed ω3PUFA or ω6PUFA-enriched diets in OIR followed by analysis of retina, plasma and aortic ring sprouting.
# The mouse model of oxygen-induced retinopathy has been previously described (Smith et al. Invest Ophthalmol Vis Sci 35: 101-111). To induce vessel loss, mice were exposed to 75% oxygen from postnatal day 7 (P7) to P12. The central retinal vessel obliteration induced by hyperoxic exposure will trigger an excessive angiogenic response that causes neovascularization. Mice were given lethal doses of Avertin (Sigma) intraperitoneally at P17 when the neovascular response is greatest.
# For dietary experiments, polyunsaturated fatty acids (PUFAs), arachidonic acid (AA) and docosahexaenoic acid (DHA) supplements under the trade names ROPUFA, ARASCO and DHASCO, respectively, were obtained from DSM Nutritional Products (dsmnutritionalproducts.com) and were integrated into the rodent feed at Research Diets Incorporated (researchdiets.com/). […] Upon delivery, dams were fed a defined rodent diet with 10% (w/w) safflower oil containing either 2% ω-6 PUFAs (AA) and no ω-3 PUFAs (DHA and EPA), or 2% ω-3 PUFAs and no ω-6 PUFAs.
# OIR eyes were enucleated and fixed in 4% paraformaldehyde for 1 hour at 4° C. Retinas were dissected and stained overnight at 23° C. with Alexa Fluor 594 fluoresceinated Griffonia Bandereiraea Simplicifolia Isolectin B4 (Molecular Probes, Cat. 121413, 1:100 dilution) in 1 mM CaCl2 in PBS. Following 2 hours of washes, retinas were whole-mounted onto Superfrost/Plus microscope slides (Fisher, Cat. 12-550-15) with the photoreceptor side up and embedded in SlowFade Antifade reagent (Invitrogen, Cat. S2828). For quantification of retinal neovascularization, 20 images of each whole-mounted retina were obtained at 5× magnifications on a Zeiss AxioObserver.Z1 microscope and merged to form one image with AxioVision 4.6.3.0 software. Vaso-obliteration was quantified using Adobe Photoshop and neovascularization was analysed with the SWIFT_NV method on ImageJ 1.46r (NIH) software, as described previously (Stahl et al. Angiogenesis 12: 297-301).
structure (smiles),measurement,setting,value
"CCCCCC1OC1C/C=C\C/C=C\C/C=C\CCCC(=O)O (stereo not shown) [14,15-EET, 14,15-EE-8(Z)-E]","aortic ring sprouting compared between WT, Tie2-sEH-Tg and sEH−/− mice",[1]; 1 μM,similar
CC(C)(O)c1ccccc1CC[C@@H](SCC1(CC(=O)O)CC1)c1cccc(/C=C/c2ccc3ccc(Cl)cc3n2)c1 [montelukast],HRMEC tubule formation,[2],clear dose-response curves
same,HRMEC migration,[3],inhibited
same,"magnitude of the extent of reduction in NV, Cyp2C8 Tg mice compared to WT mice",[4],enhanced in mice that overexpressed CYP2C8
same,neovascularization,"[4]; JAX (WT) mice, normal feed, dose not given",reduced in a statistically significant manner
"CCCCC/C=C\C/C=C\C/C=C\C/C=C\CCCC(=O)O [AA, arachidonic acid]","potentiation of aortic sprouting, AA vs. DHA","[1]; 30 μM, Tie2-CYP2C8-Tg rings",abolished
same,"aortic sprouting, AA vs. DHA","[1]; 30 μM, WT rings",potentiated aortic sprouting
CCC(=O)NC[C@H](Cc1ccc(OCCc2nc(-c3ccccc3)oc2C)cc1)N/C(C)=C\C(=O)c1ccc(C(F)(F)F)cc1 [GW6471],impact upon the effect of FA on aortic ring sprouting,"[1]; rings from WT and Cyp2C8 Tg mice, with FA",no impact
same,impact upon the effect of fenofibrate on HRMEC tubule formation,[2]; with fenofibrate,no impact
same,impact upon the effect of fenofibrate on HRMEC migration,[3]; with FA/fenofibrate,no impact
"CCC1OC1C/C=C\C/C=C\C/C=C\C/C=C\CCCC(=O)O (stereo not shown) [17,18-EEQ, 17(18)-EpETE]","aortic ring sprouting compared between WT, Tie2-sEH-Tg and sEH−/− mice",[1]; 1 μM,no difference
same,rescue of the inhibition of HRMEC migration by FA,[3],partially rescuing
"CCC1OC1C/C=C\C/C=C\C/C=C\C/C=C\C/C=C\CCC(=O)O (stereo not shown) [19,20-EDP, 19(20)-EpDPE]","less sprouting, treated Tie2-sEH-Tg aortic ring versus WT",[1]; 1 μM,50%
same,rescue of FA inhibition of aortic ring sprouting,"[1]; rings from WT & Cyp2C8 Tg mice, with FA",partially rescued
same,rescue of the inhibition of HRMEC tubule formation by FA,[2]; with FA,partially rescued
same,rescue of the inhibition of HRMEC migration by FA,[3],partially rescuing
"CC/C=C\C/C=C\C/C=C\C/C=C\C/C=C\C/C=C\CCC(=O)O [DHA, docosahexaenoic acid]","aortic sprouting, Tie2-CYP2C8-Tg versus WT",[1]; DHA treatment 30 μM,increased sprouting
CC(C)OC(=O)C(C)(C)Oc1ccc(C(=O)c2ccc(Cl)cc2)cc1 [fenofibrate],HRMEC tubule formation,[2],inhibit HRMEC tubule formation
same,"magnitude of the extent of reduction in NV, Cyp2C8 Tg mice compared to WT mice",[4],enhanced in mice that overexpressed CYP2C8
same,neovascularization,"[4]; Cyp2C8 overexpressing transgenic (Tg) mice, ω3 and ω6 LCPUFA feed, low dose",decreased neovascularization
same,neovascularization (NV),"[4]; JAX (WT) mice, normal feed, high dose 100 mg/kg/day GV",significant reduction in neovascularization
same,neovascularization (NV),"[4]; JAX (WT) mice, normal feed, low dose 10 mg/kg/day GV",significant reduction in neovascularization
same,neovascularization (NV),"[4]; PPARα knockout mice, normal feed, high dose 100 mg/kg/day GV",significant reduction in neovascularization
same,neovascularization (NV),"[4]; PPARα knockout mice, normal feed, low dose 10 mg/kg/day GV",significant reduction in neovascularization
same,neovascularization,"[4]; WT mice, ω3 and ω6 LCPUFA feed, low dose",decreased neovascularization
